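Values below derive from 48-hour exposures of cells grown in 96-well plates, with endpoints linearly interpolated between the two concentrations bracketing the appropriate inhibition level. TGI denotes the concentration required for complete inhibition of growth.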
Legend:
Assay in all cases: DTP human tumour cell line panel, 48 h
MALME-3M melanoma = system: MALME-3M melanoma
SF-268 CNS = system: SF-268 CNS
SF-295 CNS = system: SF-295 CNS
NCI-H460 lung = system: NCI-H460 lung
NCI/ADR-RES ovarian = system: NCI/ADR-RES ovarian
A498 renal = system: A498 renal
SR leukemia = system: SR leukemia
HCC-2998 colon = system: HCC-2998 colon
OVCAR-8 ovarian = system: OVCAR-8 ovarian
HOP-92 NSCLC = system: HOP-92 NSCLC
EKVX NSCLC = system: EKVX NSCLC
M14 melanoma = system: M14 melanoma
SNB-19 CNS = system: SNB-19 CNS
MCF7 breast = system: MCF7 breast
BT-549 breast = system: BT-549 breast
HCT-15 colon = system: HCT-15 colon
MOLT-4 leukemia = system: MOLT-4 leukemia
NCI-H226 lung = system: NCI-H226 lung
U251 CNS = system: U251 CNS

Compound | TGI (MALME-3M melanoma) | TGI (SF-268 CNS) | TGI (SF-295 CNS) | TGI (NCI-H460 lung) | TGI (NCI/ADR-RES ovarian) | TGI (A498 renal) | TGI (SR leukemia) | TGI (HCC-2998 colon) | TGI (OVCAR-8 ovarian) | TGI (HOP-92 NSCLC) | TGI (EKVX NSCLC) | TGI (M14 melanoma) | TGI (SNB-19 CNS) | TGI (MCF7 breast) | TGI (BT-549 breast) | TGI (HCT-15 colon) | TGI (MOLT-4 leukemia) | TGI (NCI-H226 lung) | TGI (U251 CNS)
c1ccc2sc(C3(N4CCC5(CC4)OCCO5)CCCCC3)cc2c1 | > 100 µM | > 100 µM | > 100 µM | > 100 µM | > 100 µM | > 100 µM | > 100 µM | 90.9 µM | > 100 µM | > 100 µM | > 100 µM | > 100 µM | > 100 µM | > 100 µM | > 100 µM | > 100 µM | > 100 µM | > 100 µM | 
CCC1c2[nH]c3ccccc3c2C[C@H]2C(=O)NC(CCCCNC(=O)OC(C)(C)C)C(=O)N12 (stereo partly drawn) | 50.5 µM | > 100 µM | 62.4 µM | > 100 µM | 74.6 µM | > 100 µM | 92.8 µM |  | > 100 µM | 94.4 µM | > 100 µM | 40.9 µM | > 100 µM | > 100 µM | 58.2 µM | > 100 µM | 43.5 µM | > 100 µM | > 100 µM
CCOC(=O)c1c(-c2ccccc2)nc2c(OC)nccn12 | > 100 µM | > 100 µM | > 100 µM | > 100 µM | > 100 µM |  | > 100 µM | > 100 µM | > 100 µM |  | > 100 µM | > 100 µM | > 100 µM | > 100 µM | > 100 µM | > 100 µM | > 100 µM | > 100 µM | > 100 µM
C[C@]12CC[C@H]3[C@@H](CCC4=CC(=O)CC[C@@]43C)[C@@H]1CC[C@@H]2C(=O)Nc1ccc([N+](=O)[O-])c(C(F)(F)F)c1 | 31.2 µM | 36.5 µM | 31.7 µM | 33.4 µM | 38.5 µM | 33.6 µM | 87.4 µM | 26.4 µM | 90.9 µM | 58.2 µM | 27.8 µM |  | 36.8 µM | 30.5 µM | 35.6 µM | 25.7 µM | 70.8 µM | 39 µM | 31.5 µM
Cc1cn([C@H]2C[C@@H]3[C@@H](COC(CCl)N3O)O2)c(=O)[nH]c1=O (stereo partly drawn) | > 100 µM | > 100 µM | > 100 µM | > 100 µM | > 100 µM | > 100 µM | > 100 µM |  | > 100 µM |  | > 100 µM | > 100 µM | > 100 µM | > 100 µM | > 100 µM | > 100 µM | > 100 µM | > 100 µM | > 100 µM
O=[N+]([O-])C(=C(N1CCCCC1)N1CCCCC1)/C(Cl)=C(\Cl)[N+](=O)[O-] | 6.28 µM | 25.4 µM | 46 µM | 59.9 µM | 50.7 µM | 32.1 µM | > 100 µM | 55.6 µM | 23.2 µM | 6.6 µM | 30 µM | 21.7 µM | 36 µM | 7.06 µM | 19 µM | 5.48 µM |  | 45.7 µM | 46 µM
CSc1ccc(-c2cc(-c3nc4ccccc4[nH]3)nc(N)c2C#N)cc1 | 44.5 µM | 61.6 µM | 53 µM | 72.5 µM | > 100 µM | 50 µM | 65.8 µM | 33.1 µM | > 100 µM | 42.9 µM | > 100 µM | 33.8 µM | > 100 µM | 54.6 µM | 59.6 µM | 61.9 µM | 37.1 µM | 79.5 µM | 
CC1OC(OC2C(CO)OC(O[C@H]3CC[C@@]4(C)C(=CC[C@H]5[C@@H]6C[C@@H]7O[C@](O)(CC[C@H](CO)COC8OC(CO)C(O)C(O)C8O)[C@@H](C)[C@@H]7[C@@]6(C)CC[C@@H]54)C3)C(OC3OC(C)C(O)C(O)C3O)C2O)C(O)C(O)C1O (stereo partly drawn) | > 100 µM | > 100 µM | > 100 µM | > 100 µM | > 100 µM | > 100 µM | > 100 µM | > 100 µM | > 100 µM | > 100 µM | > 100 µM | > 100 µM | > 100 µM | > 100 µM | > 100 µM | > 100 µM | > 100 µM |  | > 100 µM
C/C=N\n1c(C)c(C#N)c(C#N)c1N | > 100 µM | > 100 µM | > 100 µM |  | > 100 µM | > 100 µM | > 100 µM | > 100 µM | > 100 µM | > 100 µM | > 100 µM | > 100 µM | > 100 µM | > 100 µM | > 100 µM | > 100 µM | > 100 µM | > 100 µM | > 100 µM
CNC(=O)C1CCCN1C(=O)C(Cc1cnc[nH]1)NC(=O)C1CCC(=O)N1 (stereo not drawn) | > 100 µM | > 100 µM | > 100 µM | > 100 µM | > 100 µM |  | > 100 µM | > 100 µM | > 100 µM | > 100 µM | > 100 µM | > 100 µM | > 100 µM | > 100 µM | > 100 µM | > 100 µM | > 100 µM | > 100 µM | > 100 µM
CC1OC(OC2C(CO)OC(O[C@H]3CC[C@@]4(C)C(=CC[C@H]5[C@@H]6C[C@@H]7O[C@](O)(CC[C@H](C)COC8OC(CO)C(O)C(O)C8O)[C@@H](C)[C@@H]7[C@@]6(C)CC[C@@H]54)C3)C(OC3OC(C)C(O)C(O)C3O)C2O)C(O)C(O)C1O (stereo partly drawn) | 18.9 µM | 11.5 µM | 23.1 µM | > 45.7 µM | 18.4 µM | > 100 µM | > 100 µM | > 37.9 µM | 28.9 µM | 12.7 µM | > 100 µM |  | 8.65 µM | > 65.5 µM | 18 µM | 10 µM |  | 85 µM | > 33 µM
O=[N+]([O-])c1ccc(N/N=C(\c2ccccc2)c2ccccn2)nc1 | 14.4 µM | 35.5 µM | 25.7 µM | 22.8 µM | 2.02 µM | > 100 µM | > 83.7 µM | > 59.6 µM | 23.8 µM | 43.8 µM | 17.3 µM | 13.8 µM | > 42.5 µM | 8.45 µM | 87.1 µM | > 28.5 µM | > 67.2 µM |  | > 81.8 µM

From PubChem BioAssay (NCI)
